Experimental data taken from US12129246B1, “Hydroquinazoline derivatives for the treatment of a disease or disorder” (Novartis AG, priority 2023, dated 2024).
Where two headings read alike, the source gives them in different places.

What was measured:
monkey NPR1 = monkey NPR1 (Macaca fascicularis, UniProt A0A7N9DBT9); experiment: Cellular cGMP production assay, monkey NPR1 expressing CHO-K1 cells (CisBio HTRF); assay type: cell-based; conditions: for Monkey NPR1 Amax (% of ANP): maximum cGMP production as percentage of the maximum cGMP produced with ANP
Chain of monkey NPR1 (A0A7N9DBT9 entry or part of it): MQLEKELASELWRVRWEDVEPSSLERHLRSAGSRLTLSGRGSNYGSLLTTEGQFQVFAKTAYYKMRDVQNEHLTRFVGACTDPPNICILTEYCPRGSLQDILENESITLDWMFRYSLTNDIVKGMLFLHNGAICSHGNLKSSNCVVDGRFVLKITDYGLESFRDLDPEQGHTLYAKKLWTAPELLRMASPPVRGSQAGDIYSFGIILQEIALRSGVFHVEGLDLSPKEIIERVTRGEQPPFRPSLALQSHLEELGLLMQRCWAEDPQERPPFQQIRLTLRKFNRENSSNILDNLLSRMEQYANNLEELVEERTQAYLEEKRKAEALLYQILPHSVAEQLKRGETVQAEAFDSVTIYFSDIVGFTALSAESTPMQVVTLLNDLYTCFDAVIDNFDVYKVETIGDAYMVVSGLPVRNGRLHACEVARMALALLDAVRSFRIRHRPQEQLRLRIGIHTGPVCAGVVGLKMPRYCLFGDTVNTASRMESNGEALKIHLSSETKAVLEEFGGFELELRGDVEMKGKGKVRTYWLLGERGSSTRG
Method in brief: (§1)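 Read-out was HTRF (excitation 317 nm, emission 665 nm), with cGMP quantified as Delta F against a calibrator standard curve. Beforehand, cells were exposed for 30 min at 37 °C to compound (30 μM top, twelve 3-fold steps) in IBMX-containing PBS/BSA buffer, then lysed.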

human NPR1 = molecular target: T1, human NPR1 (Homo sapiens, UniProt P16066); experiment: Cellular cGMP production assay, human NPR1 expressing CHO-K1 cells (CisBio HTRF); assay type: cell-based; conditions: for AC50: cGMP production, 30 min at 37° C., 12-point dose-response from 30 μM; for Human NPR1 Amax (% of ANP): maximum cGMP production as percentage of the maximum cGMP produced with ANP
T1 construct: host or cells: CHO-K1
T1 sequence (P16066 33-1061): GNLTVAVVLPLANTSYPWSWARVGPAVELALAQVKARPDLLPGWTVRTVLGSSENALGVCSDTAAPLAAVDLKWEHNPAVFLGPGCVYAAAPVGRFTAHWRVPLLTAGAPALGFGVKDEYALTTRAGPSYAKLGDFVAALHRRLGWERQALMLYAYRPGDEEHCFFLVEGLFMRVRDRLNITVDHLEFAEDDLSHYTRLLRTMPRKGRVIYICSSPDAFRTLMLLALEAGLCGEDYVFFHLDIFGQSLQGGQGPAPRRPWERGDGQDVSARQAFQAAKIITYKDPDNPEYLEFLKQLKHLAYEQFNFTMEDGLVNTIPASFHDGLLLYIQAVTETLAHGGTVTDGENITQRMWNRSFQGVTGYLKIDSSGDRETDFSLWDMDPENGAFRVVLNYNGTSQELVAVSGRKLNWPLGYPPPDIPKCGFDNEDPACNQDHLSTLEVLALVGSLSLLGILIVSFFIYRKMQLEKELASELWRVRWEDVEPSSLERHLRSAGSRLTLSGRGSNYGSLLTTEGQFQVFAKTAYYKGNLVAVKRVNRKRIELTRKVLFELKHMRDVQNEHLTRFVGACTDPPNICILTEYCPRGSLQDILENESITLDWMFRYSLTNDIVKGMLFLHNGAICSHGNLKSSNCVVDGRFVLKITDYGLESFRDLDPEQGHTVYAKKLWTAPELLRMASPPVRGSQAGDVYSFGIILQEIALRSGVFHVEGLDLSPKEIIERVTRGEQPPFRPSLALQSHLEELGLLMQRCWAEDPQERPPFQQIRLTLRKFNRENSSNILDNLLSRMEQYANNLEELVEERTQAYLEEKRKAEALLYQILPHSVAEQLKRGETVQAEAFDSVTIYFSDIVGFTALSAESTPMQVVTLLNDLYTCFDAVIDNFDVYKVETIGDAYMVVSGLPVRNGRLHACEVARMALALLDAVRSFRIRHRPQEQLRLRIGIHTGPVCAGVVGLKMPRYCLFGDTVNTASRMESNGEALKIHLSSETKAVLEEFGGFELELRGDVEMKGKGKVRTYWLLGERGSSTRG
Method in brief: as §1

[1] = cGMP production, monkey NPR1 CHO-K1 cells, 30 min at 37° C., 12-point dose-response from 30 μM, read-out: Monkey NPR1 AC50

| Compound | AC50 (monkey NPR1) [nM] | Monkey NPR1 Amax (% of ANP) (monkey NPR1; monkey NPR1 CHO-K1 cells) | AC50 (human NPR1) [nM] | Human NPR1 Amax (% of ANP) (human NPR1) | AC50 (monkey NPR1; [1]) [nM] |
| --- | --- | --- | --- | --- | --- |
| CC[C@@H](Nc1nc2c(c(N[C@@H](CN3C4CCCC3CCC4)c3cnn(CC)c3)n1)C[C@H](c1ccccc1)CC2)[C@H]1CC[C@H](C(=O)O)CC1 [Compound 65, (1R,4r)-4-((R)-1-(((R)-4-(((R)-2-((1S,5S)-9-azabicyclo[3.3.1]nonan-9-yl)-1-(1-ethyl-1H-pyrazol-4-yl)ethyl)amino)-6-phenyl-5,6,7,8-tetrahydroquinazolin-2-yl)amino)propyl)cyclohexane-1-carboxylic acid] | 128 | 99.329 % of ANP | 217 | 106.664 % of ANP | – |
| CC[C@H]([C@H]1CC[C@H](C(=O)O)CC1)N(C)c1nc2c(c(N[C@@H](CN3CCCCC3)c3cnn(C)c3)n1)C[C@](C)(c1ccccc1)CC2 [Compound 66, (1R,4r)-4-((R)-1-(methyl((R)-6-methyl-4-(((R)-1-(1-methyl-1H-pyrazol-4-yl)-2-(piperidin-1-yl)ethyl)amino)-6-phenyl-5,6,7,8-tetrahydroquinazolin-2-yl)amino)propyl)cyclohexane-1-carboxylic acid] | – | 98.088 % of ANP | 219 | 96.868 % of ANP | 123 |
| CC[C@H]([C@H]1CC[C@H](CC(=O)O)CC1)N(C)c1nc2c(c(N[C@@H](CN3CCC[C@H](C)C3)c3cnn(C)c3)n1)C[C@H](c1ccccc1)CC2 [Compound 67, 2-((1R,4r)-4-((R)-1-(methyl((R)-4-(((R)-1-(1-methyl-1H-pyrazol-4-yl)-2-((S)-3-methylpiperidin-1-yl)ethyl)amino)-6-phenyl-5,6,7,8-tetrahydroquinazolin-2-yl)amino)propyl)cyclohexyl)acetic acid] | – | 98.233 % of ANP | 229 | 95.228 % of ANP | 155 |
| CC[C@H]([C@H]1CC[C@H](C(=O)O)CC1)N(C)c1nc2c(c(N[C@@H](CN3CC4CCC3C4)c3cnn(C)c3)n1)C[C@](C)(c1ccccc1)CC2 (stereo partly drawn) [Compound 68, (1R,4r)-4-((1R)-1-(((6R)-4-(((1R)-2-(2-azabicyclo[2.2.1]heptan-2-yl)-1-(1-methyl-1H-pyrazol-4-yl)ethyl)amino)-6-methyl-6-phenyl-5,6,7,8-tetrahydroquinazolin-2-yl)(methyl)amino)propyl)cyclohexane-1-carboxylic acid] | – | 101.066 % of ANP | 234 | 96.721 % of ANP | 95 |
| CC[C@H](N(C)c1nc2c(c(N[C@@H](CN3C4CCCC3CC4)c3cnn(C)c3)n1)C[C@](C)(c1ccccc1)CC2)C12CC(C(=O)O)(C1)C2 [Compound 69, 3-((1S)-1-(((6R)-4-(((1R)-2-(8-azabicyclo[3.2.1]octan-8-yl)-1-(1-methyl-1H-pyrazol-4-yl)ethyl)amino)-6-methyl-6-phenyl-5,6,7,8-tetrahydroquinazolin-2-yl)(methyl)amino)propyl)bicyclo[1.1.1]pentane-1-carboxylic acid] | 220 | 100.449 % of ANP | 234 | 98.634 % of ANP | – |
| CC[C@H]([C@H]1CC[C@H](C(=O)O)CC1)N(C)c1nc2c(c(N[C@@H](CN3C4CCC3CC4)c3cnn(C)c3)n1)C[C@](C)(c1ccccc1)CC2 [Compound 70, (1R,4r)-4-((R)-1-(((R)-4-(((R)-2-(7-azabicyclo[2.2.1]heptan-7-yl)-1-(1-methyl-1H-pyrazol-4-yl)ethyl)amino)-6-methyl-6-phenyl-5,6,7,8-tetrahydroquinazolin-2-yl)(methyl)amino)propyl)cyclohexane-1-carboxylic acid] | 230 | 100.673 % of ANP | 234 | 97.399 % of ANP | – |
| CC[C@@H](Nc1nc2c(c(N[C@@H](CN3C4CC5CC(C4)CC3C5)c3cnn(C)c3)n1)C[C@H](c1ccccc1)CC2)[C@H]1CC[C@H](C(=O)O)CC1 [Compound 71, (1R,4r)-4-((R)-1-(((R)-4-(((R)-2-((5R,7R)-2-azaadamantan-2-yl)-1-(1-methyl-1H-pyrazol-4-yl)ethyl)amino)-6-phenyl-5,6,7,8-tetrahydroquinazolin-2-yl)amino)propyl)cyclohexane-1-carboxylic acid] | – | 121.791 % of ANP | 237 | 91.827 % of ANP | 78 |
| CC[C@H]([C@H]1CC[C@H](C(=O)O)CC1)N(C)c1nc2c(c(N[C@@H](CN3CCC[C@H](CO)C3)c3cnn(C)c3)n1)C[C@H](c1cccc(F)c1)CC2 [Compound 72, (1R,4r)-4-((R)-1-(((R)-6-(3-fluorophenyl)-4-(((R)-2-((S)-3-(hydroxymethyl)piperidin-1-yl)-1-(1-methyl-1H-pyrazol-4-yl)ethyl)amino)-5,6,7,8-tetrahydroquinazolin-2-yl)(methyl)amino)propyl)cyclohexane-1-carboxylic acid] | – | 104.824 % of ANP | 242 | 99.718 % of ANP | 137 |
| CC[C@@H](Nc1nc2c(c(N[C@@H](CN3CCC[C@H](C)C3)c3scnc3C)n1)C[C@H](c1ccccc1)CC2)[C@H]1CC[C@H](C(=O)O)CC1 [Compound 73, (1R,4r)-4-((R)-1-(((R)-4-(((S)-2-((S)-3-methylpiperidin-1-yl)-1-(4-methylthiazol-5-yl)ethyl)amino)-6-phenyl-5,6,7,8-tetrahydroquinazolin-2-yl)amino)propyl)cyclohexane-1-carboxylic acid] | – | 99.527 % of ANP | 245 | 94.290 % of ANP | 172 |
| CCC(N(C)c1nc2c(c(N[C@@H](CN3C4CCCC3CCC4)c3cnn(C)c3)n1)C[C@H](c1ccccc1)CC2)C12CC(C(=O)O)(C1)C2 (stereo partly drawn) [Compound 74, 3-(1-(((R)-4-(((R)-2-((1S,5S)-9-azabicyclo[3.3.1]nonan-9-yl)-1-(1-methyl-1H-pyrazol-4-yl)ethyl)amino)-6-phenyl-5,6,7,8-tetrahydroquinazolin-2-yl)(methyl)amino)-1l3-propyl)bicyclo[1.1.1]pentane-1-carboxylic acid] | 167 | 117.270 % of ANP | 246 | 102.182 % of ANP | – |
| CC[C@H]([C@H]1CC[C@H](C(=O)O)CC1)N(C)c1nc2c(c(N[C@@H](CN3CCC[C@H](C)C3)c3cnn(C)c3)n1)C[C@@H](c1cccc(F)c1)CC2 [Compound 75, (1R,4r)-4-((R)-1-(((S)-6-(3-fluorophenyl)-4-(((R)-1-(1-methyl-1H-pyrazol-4-yl)-2-((S)-3-methylpiperidin-1-yl)ethyl)amino)-5,6,7,8-tetrahydroquinazolin-2-yl)(methyl)amino)propyl)cyclohexane-1-carboxylic acid] | 162 | 102.588 % of ANP | 247 | 93.803 % of ANP | – |
| CC[C@@H](Nc1nc2c(c(N[C@@H](CN3CCC[C@H](C)C3)c3cnn(CC)c3)n1)CN(c1cccc(F)c1)CC2)[C@H]1CC[C@H](C(=O)O)CC1 [Compound 76, (1R,4r)-4-((R)-1-((4-(((R)-1-(1-ethyl-1H-pyrazol-4-yl)-2-((S)-3-methylpiperidin-1-yl)ethyl)amino)-6-(3-fluorophenyl)-5,6,7,8-tetrahydropyrido[4,3-d]pyrimidin-2-yl)amino)propyl)cyclohexane-1-carboxylic acid] | – | 100.861 % of ANP | 247 | 100.752 % of ANP | 147 |
